This is an account of results in US8492103B2 (priority 2011, dated 2013).

“Also recorded” adds a separate entry of the source. Read-outs that look alike come from different tables or passages of the source.

Assay [1] deals with Ehrlichia-specific IgG antibody. Kind of assay: Antibody response by ELISA in vaccinated mice after E. muris challenge. As to conditions: for antibody levels in vaccinated mice, day 14 compared to day 7: after E. muris challenge; for IgG antibody response after E. muris challenge, vaccinated compared to unvaccinated E. muris-infected mice: blood on days 7 and 14. Type of assay: in vivo, C57BL/6 mice. As to the method:
ELISA plates (Nunc, Maxisorp) were coated with P28-1 and incubated with sera of mice (1:100) vaccinated with Ehrlichia Hsp60 and challenged with E. muris. Following incubation with mice sera they were incubated with goat anti-mouse AP (1:500).
Immunization with vaccines stimulates the immune system to produce a robust antibody response that can provide protection against pathogens. To determine the antibody responses against the Ehrlichia Hsp6043-63 peptide vaccine, blood was collected from vaccinated mice on days 7 and 14 and performed ELISA. […] However, there was no difference between the antibody levels in vaccinated mice between days 7 and 14. The Ehrlichia Hsp6043-63-specific antibody levels in infected unvaccinated mice were highest on day 14 compared to day 7 (FIG. 6A). To determine the antibody responses against the P28-1955-75 peptide vaccine, we collected blood from immunized mice on days 7 and 14 and subjected the samples to ELISA.
(§1) Mice were immunized i.p., with two doses of 50 micrograms (0.02 μM) of each P28-1955-75 peptide or Ehrlichia Hsp6043-63 peptides conjugated to KLH 15 days apart (the first immunization with complete Freund's adjuvant and the second immunization with incomplete Freund's adjuvant) (3 mice per group). Thirty days after the first immunization mice were challenged intraperitoneally (i.p.) with a high dose of E. muris (˜1×10^4 bacterial genomes) and observed daily. Controls included unchallenged naive mice as well as unvaccinated mice injected with E. muris alone. Mice were sacrificed on days 7, 14 and 21 after Ehrlichia challenge, and spleen and liver were harvested and sera collected. The ehrlichial load in spleen and liver was determined by quantitative RT-PCR. Sera were assayed for determination of antibody titers.
On the technique in general: In an ELISA, binding on a coated surface is turned into a signal by an enzyme label.

Assay [2] deals with Ehrlichia antibody in human serum. It counts as binding. As to conditions: ELISA; humans infected with E. chaffeensis. The procedure:
ELISA plates (Nunc, Maxisorp) were coated with P28-1 and incubated with sera of humans (infected with E. chaffeensis) (1:100) (1 hour-RT) followed by incubation with goat anti-human AP (1:1500).

The test system of assay [3] is antibodies from dogs infected with E. chaffeensis. Type of assay: binding. The conditions noted are these: ELISA, dog sera.
The subject of assay [4] is antibodies from mice infected with Rickettsia. Type of assay: binding. The conditions noted are these: ELISA; R. conorii, R. australis, R. akari.
The test system of the next assay is E. muris. Kind of assay: Immunization and Ehrlichia muris challenge, ehrlichial load by quantitative real-time PCR. Type of assay: in vivo, C57BL/6 mice. The conditions noted are these: for protection against E. muris challenge as determined by bacterial load (quantitative real time-PCR): immunized mice; for bacterial load in vaccinated mice compared to unvaccinated controls: spleen and liver, days 7 and 14 after bacterial infection; for protection against Ehrlichia infection (overall statement): vaccinated mice challenged with E. muris. As to the method:
Since the P28-1955-75 and Ehrlichia Hsp6043-63 epitope peptides induced antibodies, the inventors reasoned that they also could provide protection against Ehrlichia thereby functioning as potential vaccine candidates. […] The spleen and liver were collected at different days after bacterial challenge and the bacterial copy number determined by quantitative real time PCR.
as §1
The bacterial burdens in the organs were determined by quantitative real-time PCR. The Ehrlichia-specific dsb gene, which encodes a disulfide bond-forming protein (GenBank accession #AY236484 and AY236485), was selected as the target gene for amplification of E. muris. The sequences of the primers and probes and thermal cycle conditions were described previously (Stevenson et al. (2006) Infect Immun 74:4856-4864). PCR analyses were considered negative for ehrlichial DNA if the critical threshold values (Ct) exceeded 40 cycles. Expression of the ehrlichial load was normalized relative to the total DNA. Each sample was run in duplicate.
(In general: Real-time PCR tracks product formation cycle by cycle.)

In assay [5] the test system is antibodies from mice infected with Orientia. It counts as binding. As to conditions: ELISA; O. tsutsugamushi.
The test system of assay [6] is antibodies from dogs infected with E. canis. It counts as binding. The conditions noted are these: ELISA, dog sera.
Assay [7] deals with antibody isotypes IgG1, IgG2c, IgG2b, IgG3, IgM. Kind of assay: Measurement of antibody subclasses (isotypes) by ELISA in vaccinated mice after challenge. It counts as in vivo, C57BL/6 mice. As to conditions: day 14 post challenge. As to the method: as §1
ELISA was performed to measure the concentration of E. muris specific IgG subclass antibodies as described previously [Ismail et al. (2004) J Immunol 172:1786-1800; McBride et al. (2003) Infect Immun 71: 2516-2524). Briefly, the ELISA plates were coated with 50 μl of peptide (Ehrlichia Hsp6043-63) or recombinant P28-19 protein at a concentration of 4 μg/ml in PBS. Serum samples were diluted 1:100, and 100 μl of each sample was added to peptide-coated wells and incubated at 25° C. for 1 h. […] When peptides conjugated to KLH were used as a probe in ELISA, KLH was used as control and the results subtracted from positive values.

In assay [8] the test system is IFN-γ-producing CD4+ T cells in the spleen. Kind of assay: Flow cytometry of peptide-specific IFN-γ-producing memory CD4+ T cells in splenocytes of E. muris-infected mice. Type of assay: cell-based. The conditions noted are these: day 45 after infection; splenocytes stimulated in vitro with the peptide for 18 h. As to the method:
Flow cytometry was used to determine if Ehrlichia Hsp6043-63 and P28-19 specific memory T cells are induced during E. muris infection.
The frequencies of antigen specific IFN-γ-producing T cells in the spleens were determined by flow cytometric analysis. […]
After blocking Fc receptors with anti-Fc receptor mAbs (BD PharMingen, San Diego, Calif.) in FACS buffer (Dulbecco's PBS without Mg^2+ or Ca^2+ containing 1% fetal calf serum and 0.09% sodium azide) at 4° C. for 15 minutes, cells were labeled with fluorochrome-conjugated mAbs (BD Biosciences Pharmingen, San Diego, Calif.) specific for mouse CD3 (APC; clone 17A2), and CD4 (FITC; clone RM4-5), and CD8 (PerCP-Cy 5.5; clone 53-6.7). […] Data were analyzed using FCS Express software (De Novo Software, Los Angeles, Calif.). Dot plots were gated on CD3+ T cells and the frequencies and absolute numbers of antigen-specific IFN-γ-producing CD4+ T cells in the spleens were determined after subtracting the background staining of unstimulated cells in wells containing medium only.
On the technique in general: A flow cytometer gives signals particle by particle.

Assay [9] relates to Ehrlichia antibody from dogs infected with E. ewingii. It counts as binding. As to conditions: ELISA; dog sera.

In the case of “akeeknataktfglkq (AKEEKNATAKTFGLKQ; listed as Ehrlichia muris) [P28-1955-75 peptide, peptide of E. muris outer membrane protein P28-19, amino acids 55-75]”, the “antibody levels in vaccinated mice, day 14 compared to day 7” value in assay [1] was “higher on day 14”. Besides, the “IgG antibody response after E. muris challenge, vaccinated compared to unvaccinated E. muris-infected mice” value in assay [1] was “higher IgG antibody levels”. The “detection of Ehrlichia antibody in human serum” value in assay [2] was “sensitive”. For the same substance, the “reaction with / detection of antibodies from dogs infected with E. chaffeensis” value is on record as “reacted” in assay [3] and “very sensitive” in assay [3] (listed as P28 peptide). Also, the “cross-reaction with antibodies from mice infected with Rickettsia” value in assay [4] was “did not react”. The “protection against E. muris challenge as determined by bacterial load (quantitative real time-PCR)” value with E. muris (days 7 and 14 after E. muris challenge) was “protected”. Also, in the assay with E. muris, the “bacterial load in vaccinated mice compared to unvaccinated controls” value was “lower bacterial load”. Moreover, the “protection against Ehrlichia infection (overall statement)” value with E. muris is “provided protection”. Also, the “cross-reaction with antibodies from mice infected with Orientia” value in assay [5] was “did not react”. The “reaction with / detection of antibodies from dogs infected with E. canis” value in assay [6] is on record as “reacted”; in [6] (listed as P28 peptide), “very sensitive”. Further, the “antibody isotype levels in vaccinated compared to unvaccinated mice after bacterial challenge” value in assay [7] was “higher levels of IgG1, IgG2b, IgG2c, and IgG3”; in [7] (listed as P28-1955-75), “higher levels of IgG1, IgG2b, IgG3 and IgM”. The “peptide-specific IFN-γ-producing CD4+ T cells in spleen of E. muris-infected mice compared to naive uninfected mice” value in assay [8] was “significantly higher frequencies and absolute numbers; also recorded: higher frequency”. For the same substance, the “detection of Ehrlichia antibodies of dogs infected with E. ewingii” value in [9] is listed as “very sensitive”.
Consider “ygapeitkdgykviksikped (YGAPEITKDGYKVIKSIKPED; listed as Ehrlichia muris) [Ehrlichia Hsp6043-63 peptide]”, for which, in assay [1], the “antibody levels in vaccinated mice, day 14 compared to day 7” value was “no difference” and the “IgG antibody response after E. muris challenge, vaccinated compared to unvaccinated E. muris-infected mice” value was “higher IgG antibody levels”. In addition, the “reaction with / detection of antibodies from dogs infected with E. chaffeensis” value in [3] is listed as “reacted”. The “cross-reaction with antibodies from mice infected with Rickettsia” value in [4] is “did not react”. Further, in the assay on E. muris (day 14 after E. muris challenge), the “protection against E. muris challenge as determined by bacterial load (quantitative real time-PCR)” value was “protected”. In addition, in the assay with E. muris, the “bacterial load in vaccinated mice compared to unvaccinated controls” value is on record as “lower bacterial load” and the “protection against Ehrlichia infection (overall statement)” value is given as “provided protection”. In addition, the “cross-reaction with antibodies from mice infected with Orientia” value in assay [5] is listed as “did not react”. Moreover, in assay [6], the “reaction with / detection of antibodies from dogs infected with E. canis” value was “reacted”. Besides, the “antibody isotype levels in vaccinated compared to unvaccinated mice after bacterial challenge” value in [7] is “higher levels of IgG1, IgG2c, IgG2b, and IgG3”. Further, the “antibody isotype levels in vaccinated compared to unvaccinated mice after bacterial challenge” value in [7] (listed as Ehrlichia Hsp6043-63) is “higher levels of IgG1, IgG2c, IgG2b, IgG3 and IgM”. Further, the “peptide-specific IFN-γ-producing CD4+ T cells in spleen of E. muris-infected mice compared to naive uninfected mice” value in assay [8] is “significantly higher frequencies and absolute numbers; also recorded: higher frequency”.
